Molecules are shown by their SMILES.
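Note: luminescence signal used as surrogate measure of viable cells; spheroids exposed to compounds for seven days before readout; 100% = DMSO vehicle control viability as luminescence relative to vehicle.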

One experiment concerns 429239-143-T-J1-PDC complex spheroid viability. In words: Anticancer human tumor 429239-143-T-J1-PDC patient-derived small cell lung carcinoma cell line growth inhibition [POLQ]. The settings on record: second compound 0.1 µM; first compound 1 µM; stronger effect = lower value. A digest of the protocol: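 Patient-derived tumour cells were co-cultured with HUVEC and mesenchymal stem cells as multicellular spheroids at 37 °C. They were treated with POLQ inhibitors (novobiocin, ART-558, RP6685) alone or combined with other agents. Top concentrations were at or near clinical Cmax (otherwise 10 microM; SN-38 at 1 microM), decreasing in half-log steps.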
For the compound `COc1cc2cc(C(=O)CCC(=O)O)sc2cc1OC` + Nc1ccc(C#CCN(C(=O)Cc2ncc(C(F)(F)F)cc2C(F)(F)F)c2ccc(F)cc2)nn1, the viability, T/C (as a rule, the ratio of treated to control) is 106%.

On to `O=C(Nc1ccc(O)c(NS(=O)(=O)c2ccc(F)cc2)c1)c1ccc(-c2ccccc2)cc1` + Nc1ccc(C#CCN(C(=O)Cc2ncc(C(F)(F)F)cc2C(F)(F)F)c2ccc(F)cc2)nn1, for which the viability, T/C was 106%.

Staying with this experiment, now noted: second compound 0.1 µM; first compound 3.16 µM; stronger effect = lower value.
Turning to `C#Cc1c(F)ccc2cc(O)cc(-c3ncc4c(N5CC6CCC(C5)N6)nc(OCC56CCCN5CC(F)C6)nc4c3F)c12` (configuration not stated) + Nc1ccc(C#CCN(C(=O)Cc2ncc(C(F)(F)F)cc2C(F)(F)F)c2ccc(F)cc2)nn1, the viability, T/C was 101%.

With `CC1COCCN1c1cc(C2(O)CC3CCC(C2)O3)c2cnn(-c3ccn[nH]3)c2n1` (configuration not stated) + Nc1ccc(C#CCN(C(=O)Cc2ncc(C(F)(F)F)cc2C(F)(F)F)c2ccc(F)cc2)nn1, the viability, T/C was 3.33%.

As to `CCc1cc2c(N3CCc4c(cc(Cn5ccnc5)cc4-c4cn(C)nc4C(F)(F)F)C3=O)cc(C)nc2c(OC)n1` + Nc1ccc(C#CCN(C(=O)Cc2ncc(C(F)(F)F)cc2C(F)(F)F)c2ccc(F)cc2)nn1, the viability, T/C is 74.1%.

As to `COc1cc2cc(C(=O)CCC(=O)O)sc2cc1OC` + Nc1ccc(C#CCN(C(=O)Cc2ncc(C(F)(F)F)cc2C(F)(F)F)c2ccc(F)cc2)nn1, the viability, T/C is 103%.

In the case of `O=C(Nc1ccc(O)c(NS(=O)(=O)c2ccc(F)cc2)c1)c1ccc(-c2ccccc2)cc1` + Nc1ccc(C#CCN(C(=O)Cc2ncc(C(F)(F)F)cc2C(F)(F)F)c2ccc(F)cc2)nn1, the viability, T/C was 109%.

Staying with this experiment, now noted: second compound 0.1 µM; first compound 10 µM; stronger effect = lower value.
Regarding `C#Cc1c(F)ccc2cc(O)cc(-c3ncc4c(N5CC6CCC(C5)N6)nc(OCC56CCCN5CC(F)C6)nc4c3F)c12` (configuration not stated) + Nc1ccc(C#CCN(C(=O)Cc2ncc(C(F)(F)F)cc2C(F)(F)F)c2ccc(F)cc2)nn1, the viability, T/C was 95%.

For `CC1COCCN1c1cc(C2(O)CC3CCC(C2)O3)c2cnn(-c3ccn[nH]3)c2n1` (configuration not stated) + Nc1ccc(C#CCN(C(=O)Cc2ncc(C(F)(F)F)cc2C(F)(F)F)c2ccc(F)cc2)nn1, the viability, T/C is 2.36%.

On to `CCc1cc2c(N3CCc4c(cc(Cn5ccnc5)cc4-c4cn(C)nc4C(F)(F)F)C3=O)cc(C)nc2c(OC)n1` + Nc1ccc(C#CCN(C(=O)Cc2ncc(C(F)(F)F)cc2C(F)(F)F)c2ccc(F)cc2)nn1, for which the viability, T/C is 45.4%.

`COc1cc2cc(C(=O)CCC(=O)O)sc2cc1OC` + Nc1ccc(C#CCN(C(=O)Cc2ncc(C(F)(F)F)cc2C(F)(F)F)c2ccc(F)cc2)nn1: the viability, T/C was 97.4%.

For the compound `O=C(Nc1ccc(O)c(NS(=O)(=O)c2ccc(F)cc2)c1)c1ccc(-c2ccccc2)cc1` + Nc1ccc(C#CCN(C(=O)Cc2ncc(C(F)(F)F)cc2C(F)(F)F)c2ccc(F)cc2)nn1, the viability, T/C was 99%.

The same experiment, now with this note: second compound 0.316 µM; first compound 0.0316 µM; stronger effect = lower value.
Regarding `C#Cc1c(F)ccc2cc(O)cc(-c3ncc4c(N5CC6CCC(C5)N6)nc(OCC56CCCN5CC(F)C6)nc4c3F)c12` (configuration not stated) + Nc1ccc(C#CCN(C(=O)Cc2ncc(C(F)(F)F)cc2C(F)(F)F)c2ccc(F)cc2)nn1, the viability, T/C was 106%.

With `CC1COCCN1c1cc(C2(O)CC3CCC(C2)O3)c2cnn(-c3ccn[nH]3)c2n1` (configuration not stated) + Nc1ccc(C#CCN(C(=O)Cc2ncc(C(F)(F)F)cc2C(F)(F)F)c2ccc(F)cc2)nn1, the viability, T/C is 83.9%.

In the case of `CCc1cc2c(N3CCc4c(cc(Cn5ccnc5)cc4-c4cn(C)nc4C(F)(F)F)C3=O)cc(C)nc2c(OC)n1` + Nc1ccc(C#CCN(C(=O)Cc2ncc(C(F)(F)F)cc2C(F)(F)F)c2ccc(F)cc2)nn1, the viability, T/C is 103%.

`COc1cc2cc(C(=O)CCC(=O)O)sc2cc1OC` + Nc1ccc(C#CCN(C(=O)Cc2ncc(C(F)(F)F)cc2C(F)(F)F)c2ccc(F)cc2)nn1: the viability, T/C is 105%.

For the compound `O=C(Nc1ccc(O)c(NS(=O)(=O)c2ccc(F)cc2)c1)c1ccc(-c2ccccc2)cc1` + Nc1ccc(C#CCN(C(=O)Cc2ncc(C(F)(F)F)cc2C(F)(F)F)c2ccc(F)cc2)nn1, the viability, T/C is 111%.

The same experiment, now with this note: second compound 0.316 µM; first compound 0.1 µM; stronger effect = lower value.
With `C#Cc1c(F)ccc2cc(O)cc(-c3ncc4c(N5CC6CCC(C5)N6)nc(OCC56CCCN5CC(F)C6)nc4c3F)c12` (configuration not stated) + Nc1ccc(C#CCN(C(=O)Cc2ncc(C(F)(F)F)cc2C(F)(F)F)c2ccc(F)cc2)nn1, the viability, T/C was 93%.

In the case of `CC1COCCN1c1cc(C2(O)CC3CCC(C2)O3)c2cnn(-c3ccn[nH]3)c2n1` (configuration not stated) + Nc1ccc(C#CCN(C(=O)Cc2ncc(C(F)(F)F)cc2C(F)(F)F)c2ccc(F)cc2)nn1, the viability, T/C is 71.3%.

For `CCc1cc2c(N3CCc4c(cc(Cn5ccnc5)cc4-c4cn(C)nc4C(F)(F)F)C3=O)cc(C)nc2c(OC)n1` + Nc1ccc(C#CCN(C(=O)Cc2ncc(C(F)(F)F)cc2C(F)(F)F)c2ccc(F)cc2)nn1, the viability, T/C is 91.4%.

Consider `COc1cc2cc(C(=O)CCC(=O)O)sc2cc1OC` + Nc1ccc(C#CCN(C(=O)Cc2ncc(C(F)(F)F)cc2C(F)(F)F)c2ccc(F)cc2)nn1, for which the viability, T/C is 109%.

With `O=C(Nc1ccc(O)c(NS(=O)(=O)c2ccc(F)cc2)c1)c1ccc(-c2ccccc2)cc1` + Nc1ccc(C#CCN(C(=O)Cc2ncc(C(F)(F)F)cc2C(F)(F)F)c2ccc(F)cc2)nn1, the viability, T/C is 103%.

Staying with this experiment, now noted: second compound 0.316 µM; first compound 0.316 µM; stronger effect = lower value.
Regarding `C#Cc1c(F)ccc2cc(O)cc(-c3ncc4c(N5CC6CCC(C5)N6)nc(OCC56CCCN5CC(F)C6)nc4c3F)c12` (configuration not stated) + Nc1ccc(C#CCN(C(=O)Cc2ncc(C(F)(F)F)cc2C(F)(F)F)c2ccc(F)cc2)nn1, the viability, T/C was 102%.

Take `CC1COCCN1c1cc(C2(O)CC3CCC(C2)O3)c2cnn(-c3ccn[nH]3)c2n1` (configuration not stated) + Nc1ccc(C#CCN(C(=O)Cc2ncc(C(F)(F)F)cc2C(F)(F)F)c2ccc(F)cc2)nn1: the viability, T/C is 47.9%.

For `CCc1cc2c(N3CCc4c(cc(Cn5ccnc5)cc4-c4cn(C)nc4C(F)(F)F)C3=O)cc(C)nc2c(OC)n1` + Nc1ccc(C#CCN(C(=O)Cc2ncc(C(F)(F)F)cc2C(F)(F)F)c2ccc(F)cc2)nn1, the viability, T/C is 98.7%.

For the compound `COc1cc2cc(C(=O)CCC(=O)O)sc2cc1OC` + Nc1ccc(C#CCN(C(=O)Cc2ncc(C(F)(F)F)cc2C(F)(F)F)c2ccc(F)cc2)nn1, the viability, T/C was 96.8%.

For the compound `O=C(Nc1ccc(O)c(NS(=O)(=O)c2ccc(F)cc2)c1)c1ccc(-c2ccccc2)cc1` + Nc1ccc(C#CCN(C(=O)Cc2ncc(C(F)(F)F)cc2C(F)(F)F)c2ccc(F)cc2)nn1, the viability, T/C is 104%.
